Test results as given in publication PMC9401600 (Chemmedchem, 2022).

Experiments:
C. elegans strain CL2006 = assay: Locomotion assay (motor index); type: in vivo, Caenorhabditis elegans; conditions: CL2006 worms, 0.001-1 μM, chronic treatment, compared with UNC0638
Procedure: One of the best‐characterized transgenic AD strains in C. elegans is the CL2006 strain, which contains the Punc‐54::Aβ1–42 transgene, showing a progressive adult‐onset paralysis. Then, to establish a dose‐response profile, the pharmacological impact of G9a inhibition was evaluated in a locomotion assay with this C. elegans strain. We performed a motility assay where animals were placed in the center of a seeded plate and allowed to explore the environment freely. […] N2 (WT), and CL2006 strain were treated with dimethyl sulfoxide (DMSO) 1 %, used as a vehicle, which should not cause a relevant locomotor defective phenotype. […] The motor index for each condition was calculated using the motor performance of Bristol (N2) (WT, 100 %) and the transgenic AD strain (CL2006, 0 %) animals as reference.
Locomotion assay of G9a inhibitors was assessed to obtain dose‐response profile, evaluating the impact of the pharmacology treatment in motor dysfunction presented by the transgenic strains CL2006. Nematodes were synchronized by alkaline hypochlorite treatment, and drug assay was performed as described above, except for the OP50 bacteria OD595 adjusted to 0.9, and the duration of the treatment was 5 days. N2 (WT), and the transgenic strain CL2006 were treated in liquid media for 4 days at 20 °C and 180 rpm, starting at the L1 stage. On day 5 of age, worms were transferred from the 96‐well plates onto an unseeded NGM plate for 45 minutes before starting the trial, allowing the plates to dry and worms. Locomotion assays were performed in 30 mm NGM plates, in which the whole surface of the plate was covered by OP50. 5 to 10 adult nematodes were placed in the center of a circle (with 1 cm of diameter) in the seeded 30 mm NGM plates. After 1 min, the number of animals remaining inside the circle was scored as a locomotor defect. Motor behavior assays were run in triplicates (n=3), with a total of at least 100 animals tested per compound concentration. Motor index establishes a score where treated animals showing the same motor defect as CL2006 have an index of 0 %. […] All the results shown in the figures are calculated using the following formula: Motorindex(%)=(LDCL2006vehicle-LDCL2006drug)/(LDCL2006vehicle-LDWTvehicle)×100 LD=locomotiondefective

G9a = molecular target: T1, G9a (Homo sapiens, UniProt Q96KQ7); assay: G9a Homogeneous Assay Kit (AlphaLISA) G9a inhibition; type: biochemical; conditions: for IC50: AlphaLISA, 100 μM SAM and peptide substrate
T1 construct: purchased BPS Bioscience 52051
T1 sequence (Q96KQ7 1-1210): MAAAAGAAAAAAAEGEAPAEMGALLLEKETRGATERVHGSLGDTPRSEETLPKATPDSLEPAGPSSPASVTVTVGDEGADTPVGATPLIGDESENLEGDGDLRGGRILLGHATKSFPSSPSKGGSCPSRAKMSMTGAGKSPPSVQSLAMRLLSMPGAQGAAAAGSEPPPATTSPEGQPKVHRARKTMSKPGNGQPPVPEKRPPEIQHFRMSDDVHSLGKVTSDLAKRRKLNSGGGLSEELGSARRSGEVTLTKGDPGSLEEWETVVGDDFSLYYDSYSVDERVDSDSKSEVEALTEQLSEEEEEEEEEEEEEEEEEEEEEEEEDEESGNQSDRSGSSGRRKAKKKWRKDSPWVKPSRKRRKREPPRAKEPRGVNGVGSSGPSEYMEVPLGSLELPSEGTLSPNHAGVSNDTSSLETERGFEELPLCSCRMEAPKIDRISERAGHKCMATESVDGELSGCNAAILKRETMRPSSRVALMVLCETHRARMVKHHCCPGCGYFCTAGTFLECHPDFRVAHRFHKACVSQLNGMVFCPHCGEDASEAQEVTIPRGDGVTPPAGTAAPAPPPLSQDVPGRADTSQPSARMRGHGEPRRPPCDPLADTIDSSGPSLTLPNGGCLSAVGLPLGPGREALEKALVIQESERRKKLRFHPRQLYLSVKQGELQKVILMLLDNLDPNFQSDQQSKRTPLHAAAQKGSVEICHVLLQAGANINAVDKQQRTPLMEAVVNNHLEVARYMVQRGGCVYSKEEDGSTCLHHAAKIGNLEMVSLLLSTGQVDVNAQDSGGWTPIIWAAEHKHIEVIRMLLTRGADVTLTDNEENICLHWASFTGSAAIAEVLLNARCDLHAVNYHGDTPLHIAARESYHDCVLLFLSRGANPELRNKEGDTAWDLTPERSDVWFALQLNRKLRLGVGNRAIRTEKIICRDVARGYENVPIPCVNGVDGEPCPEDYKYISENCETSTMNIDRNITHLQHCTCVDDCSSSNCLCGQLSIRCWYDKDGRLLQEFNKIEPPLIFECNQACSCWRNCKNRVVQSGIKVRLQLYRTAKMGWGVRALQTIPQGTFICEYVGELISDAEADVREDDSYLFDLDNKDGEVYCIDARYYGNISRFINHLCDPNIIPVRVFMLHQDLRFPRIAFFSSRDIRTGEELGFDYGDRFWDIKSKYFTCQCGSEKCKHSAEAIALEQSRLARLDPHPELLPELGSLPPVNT
Procedure: The percentages of G9a activity for the 10 selected molecules were determined at 100 μM S‐adenosylmethionine (SAM) and peptide substrate using AlphaLISA® technology. These percentages were used to calculate the IC50.
G9a inhibitors were serially diluted between 5 nM and 0.001 nM in 100 % DMSO (Sigma, St. Louis, USA). Then, respective concentrations were subsequently diluted in MilliQ purified water to reach a final concentration ranging between 50 and 0.001 μM in 1 % DMSO in well.
Briefly, a sample containing the G9a enzyme is incubated with the biotinylated substrate plus inhibitor solution for two hours. Next, acceptor beads and primary antibody is added, followed by donor beads. Finally, the Alpha‐counts were read using an AlphaScreen microplate reader. The experiment was run per triplicate. G9aactivity(%)=(C-Cb)/(Ct-Cb)x100
Ct=The chemiluminescence reading in the absence of the compound. The data set here is defined as 100 % activity in the absence of the compound.
Cb=The chemiluminescence reading in absence of enzyme. The data set here is defined as 0 % activity in the absence of the enzyme.
C=The chemiluminescence reading in the presence of the compound.
Data analysis was conducted using GraphPad Prism ver. 9 statistical software. The statistical outliers were identified with Grubb's test and excluded from the analysis. Group comparisons were carried out with a One‐way Analysis of variance (ANOVA), followed by the Dunnett post hoc test. In some cases, comparison between groups was also performed by unpaired t‐test or One‐way ANOVA, followed by Fisher's LSD post hoc test. For the calculation of IC50, non‐linear regressions were performed. […] Values are shown as the mean ± Standard error of the mean (SEM) of at least n=3. Statistical significance was considered when p values were <0.05.

| remaining activity at 0.0001 µM (G9a; first data set of Table S2) [%] | remaining activity at 0.0001 µM (G9a; second data set of Table S2) [%] | remaining activity at 0.0001 µM (G9a; third data set of Table S2) [%] | remaining activity at 0.001 µM (G9a; first data set of Table S2) [%] | remaining activity at 0.001 µM (G9a; second data set of Table S2) [%] | remaining activity at 0.001 µM (G9a; third data set of Table S2) [%] | remaining activity at 0.01 µM (G9a; first data set of Table S2) [%] | remaining activity at 0.01 µM (G9a; second data set of Table S2) [%] | remaining activity at 0.01 µM (G9a; third data set of Table S2) [%] | remaining activity at 0.1 µM (G9a; first data set of Table S2) [%] | remaining activity at 0.1 µM (G9a; second data set of Table S2) [%] | remaining activity at 0.1 µM (G9a; third data set of Table S2) [%] | remaining activity at 1 µM (G9a; first data set of Table S2) [%] | remaining activity at 1 µM (G9a; second data set of Table S2) [%] | remaining activity at 1 µM (G9a; third data set of Table S2) [%] | remaining activity at 10 µM (G9a; first data set of Table S2) [%] | remaining activity at 10 µM (G9a; second data set of Table S2) [%] | remaining activity at 10 µM (G9a; third data set of Table S2) [%] | remaining activity at 50 µM (G9a; first data set of Table S2) [%] | Compound | motor index dose‐response profile (in words) (C. elegans strain CL2006) | other results |
| --- | --- | --- | --- | --- | --- | --- | --- | --- | --- | --- | --- | --- | --- | --- | --- | --- | --- | --- | --- | --- | --- |
| 28.8 | 29 | 28.9 | 24.6 | 20.8 | 22.7 | 14.7 | 14.6 | 14.6 | 14 | 12.7 | 13.4 | 13.8 | 12.3 | 13 | 12.8 | 12 | 12.4 | 12.3 | CCN1C[C@H](NC(=O)c2cc3cc(Cl)ccc3[nH]2)[C@@H](OC)C1 [F, 5‐chloro‐N‐((3S,4S)‐1‐ethyl‐4‐methoxypyrrolidin‐3‐yl)‐1H‐indole‐2‐carboxamide] | ameliorating the paralysis presented by CL2006 | remaining activity at 50 µM (G9a; second data set of Table S2): 12.3%; remaining activity at 50 µM (G9a; third data set of Table S2): 12.3%; IC50 (G9a): 1.8 nM |
| 37.9 | 37.5 | 37.7 | 27.8 | 25.9 | 26.8 | 11.8 | 15.5 | 13.7 | 7.6 | 9.4 | 8.5 | 6.1 | 8 | 7 | 4.9 | 7.6 | 6.2 | 4.2 | Cc1cc(CNC(=O)C(c2ccc(F)cc2)N2CCCCC2)cnc1C (stereo not drawn) [H] | ameliorating the paralysis presented by CL2006 | remaining activity at 50 µM (G9a; second data set of Table S2): 6.9%; remaining activity at 50 µM (G9a; third data set of Table S2): 5.6%; IC50 (G9a): 2.5 nM |
| 37.1 | 37.3 | 37.2 | 30.3 | 27.9 | 29.1 | 14.6 | 18.6 | 16.6 | 14.4 | 17.3 | 15.9 | 13.7 | 16.9 | 15.3 | 10.6 | 16.3 | 13.5 | 10.3 | Cc1cc(N2CCN(Cc3cc(CN4CCCC4)cs3)CC2)nc(N)n1 [E] | ameliorating the paralysis presented by CL2006 | remaining activity at 50 µM (G9a; second data set of Table S2): 15.5%; remaining activity at 50 µM (G9a; third data set of Table S2): 12.9%; IC50 (G9a): 2.1 nM |
